From paper PMC3711671 (Nature chemical biology, 2012)

Legend:
PKM2 in A549 cells = PKM2 in A549 cells (Homo sapiens, UniProt P14618); assay: Size exclusion chromatography of cell lysates; assay type: cell-based; settings: 100 μM pervanadate for 10 min
[1] = target: recombinant PKM2 monomers and tetramers (Homo sapiens, UniProt P14618); assay type: biochemical; settings: 100 µM FBP
Sequence of recombinant PKM2 monomers and tetramers (P14618 whole entry): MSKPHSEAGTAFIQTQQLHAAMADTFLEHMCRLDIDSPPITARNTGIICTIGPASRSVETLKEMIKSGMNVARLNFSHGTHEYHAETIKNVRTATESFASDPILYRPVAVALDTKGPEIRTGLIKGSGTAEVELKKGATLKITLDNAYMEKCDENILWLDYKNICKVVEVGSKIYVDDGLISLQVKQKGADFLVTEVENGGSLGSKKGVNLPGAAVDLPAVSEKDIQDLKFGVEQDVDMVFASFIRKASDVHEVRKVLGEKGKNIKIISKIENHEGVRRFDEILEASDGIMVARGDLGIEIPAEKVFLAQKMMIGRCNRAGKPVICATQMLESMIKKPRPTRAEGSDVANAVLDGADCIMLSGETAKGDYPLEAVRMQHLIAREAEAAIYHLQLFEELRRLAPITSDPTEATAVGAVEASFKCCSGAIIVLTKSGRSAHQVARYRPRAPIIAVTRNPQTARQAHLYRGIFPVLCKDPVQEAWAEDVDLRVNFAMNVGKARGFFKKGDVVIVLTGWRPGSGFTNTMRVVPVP

Sequence of PKM2 in A549 cells (P14618 2-531 limits assumed): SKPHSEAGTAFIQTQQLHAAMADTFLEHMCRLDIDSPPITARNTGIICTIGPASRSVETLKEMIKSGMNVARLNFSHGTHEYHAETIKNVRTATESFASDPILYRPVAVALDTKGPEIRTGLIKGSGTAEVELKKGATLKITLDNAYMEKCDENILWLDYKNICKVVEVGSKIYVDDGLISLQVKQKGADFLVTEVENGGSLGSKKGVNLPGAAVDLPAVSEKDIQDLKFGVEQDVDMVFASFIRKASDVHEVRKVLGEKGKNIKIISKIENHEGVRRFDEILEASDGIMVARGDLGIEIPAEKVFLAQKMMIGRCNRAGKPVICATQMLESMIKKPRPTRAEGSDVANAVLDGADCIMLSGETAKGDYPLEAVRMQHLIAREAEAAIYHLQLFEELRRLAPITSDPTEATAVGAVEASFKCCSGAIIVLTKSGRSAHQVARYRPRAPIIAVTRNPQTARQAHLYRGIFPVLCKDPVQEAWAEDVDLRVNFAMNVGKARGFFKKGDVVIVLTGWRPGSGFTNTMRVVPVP

Compound | PKM2 subunit stoichiometry in cells after pervanadate (PKM2 in A549 cells) | effect on PKM2 tetramer activity [1] | increase of activity of PKM2 monomers [1]
Pervanadate | disappearance of PKM2 tetramers | – | –
O=C(COP(=O)(O)O)[C@@H](O)[C@H](O)[C@H](O)COP(=O)(O)O [FBP, fructose-1,6-bisphosphate] | – | minimal effects | approximately 70%
